Drawing on patent US20240294522A1 (Lead Discovery Center GmbH, priority 2021, published 2024), this text covers IC50 for twelve compounds.

Some results are limits rather than exact numbers.

For one experiment, the target named is T1, GRK2 (Homo sapiens, UniProt P25098).
T1 construct: purchased Thermo Scientific
T1 sequence (P25098 1-689): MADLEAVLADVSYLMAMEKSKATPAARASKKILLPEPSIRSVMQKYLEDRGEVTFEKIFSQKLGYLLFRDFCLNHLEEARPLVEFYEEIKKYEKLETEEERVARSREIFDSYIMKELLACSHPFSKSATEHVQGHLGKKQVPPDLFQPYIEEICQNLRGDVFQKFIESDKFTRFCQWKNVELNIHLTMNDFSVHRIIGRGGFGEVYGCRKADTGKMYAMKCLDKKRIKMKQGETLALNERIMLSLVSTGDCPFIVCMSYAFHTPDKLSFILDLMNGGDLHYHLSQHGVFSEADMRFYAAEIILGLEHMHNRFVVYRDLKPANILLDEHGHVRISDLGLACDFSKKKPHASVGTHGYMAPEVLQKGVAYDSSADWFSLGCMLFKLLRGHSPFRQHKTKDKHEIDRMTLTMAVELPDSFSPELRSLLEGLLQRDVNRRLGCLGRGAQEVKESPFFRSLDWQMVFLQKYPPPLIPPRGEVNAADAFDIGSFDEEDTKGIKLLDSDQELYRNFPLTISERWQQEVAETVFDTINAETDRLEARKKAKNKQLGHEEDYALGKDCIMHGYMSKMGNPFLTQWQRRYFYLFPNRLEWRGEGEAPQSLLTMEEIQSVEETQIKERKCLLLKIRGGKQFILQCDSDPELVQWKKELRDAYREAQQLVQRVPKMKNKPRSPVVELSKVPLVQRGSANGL
As to the kind of experiment: Lance Kinase Activity Assay, GRK2. Particulars: biochemical Lance kinase activity assay; class symbols A-F; read-out: GRK2 LANCE Assay (IC-50). The method, then: (§1) This protocol describes how the Lance Kinase Activity Assay was performed to determine IC50 values of compounds of general formula (I) against GRK5 and GRK2.
(§2) The principle behind this enzymatic assay is based upon the phosphorylation of the Ulight-peptide substrate. It is detected by using a specific EU-labeled anti-phospho peptide antibody. The binding of the Eu labeled anti-phospho peptide antibody to the phosphorylated ULight labeled peptide gives rise to a FRET-signal. Binding of an inhibitor to the kinase prevents phosphorylation of the Ulight-substrate, resulting in a loss of FRET. In tables 2 and 3 the relevant information for these two LANCE assays is summarized.
(§3) For every sample, 2 μl of assay buffer (50 mM HEPES pH 7,5, 10 mM MgCL2, 1 mM EGTA 0,01% Tween 20, 1% DMSO, 2 mM DTT) were transferred into a suitable assay plate (e.g. Corning #3673). Compounds were added in a concentration range from 10 μM to 0.0025 μM using an acoustic dispenser (Echo520 from Labcycte, San Jose, USA) equipped with Echo Dose Response software. After that 6 μl of kinase-substrate mix was added. Reaction was started by addition of 2 μl ATP working solution and mixed using a Bioshake 5000 microplate shaker (Q Instruments, Jena, Germany).
(§4) After 1 h incubation at room temperature the reaction was stopped with 10 μl detection mix containing the Eu-labeled phosphospecific antibody and 10 mM EDTA. After a second incubation period of 1 h at room temperature the FRET signal was measured at 340 nm excitation, 665 nm and 615 nm emission (for the ULight-substrate and Eu-AB, respectively) with an Envision microplate reader (Perkin Elmer, Waltham, MA, USA) with 50 μs delay and 300 μs integration time. IC50 values were determined from the sigmoidal dose response curves with the software Quattro Workflow (Quattro GmbH, Munich, Germany).
(§5) Inhibition is indicated as IC50 [nM] (“−”=not measured). Compounds having an activity designated as “A” provided an IC50≤50 nM; compounds having an activity designated as “B” provided an 50 nM<IC50≤100 nM; compounds having an activity designated as “C” provided an 100 nM<IC50≤500 nM; compounds having an activity designated as “D” provided an 500 nM<IC50≤1000 nM; compounds having an activity designated as “E” provided an 1000 nM<IC50≤10000 nM; and compounds having an activity designated as “F” provided an IC50>10000 nM.

A further experiment deals with T2, GRK5 (Homo sapiens, UniProt P34947).
T2 construct: purchased Thermo Scientific
As to the kind of experiment: Lance Kinase Activity Assay, GRK5. Particulars: biochemical Lance kinase activity assay; class symbols A-F; read-out: GRK5 LANCE Assay (IC-50). The method, then: as §1, §2, §3, §4, §5

T2 sequence (P34947 whole entry): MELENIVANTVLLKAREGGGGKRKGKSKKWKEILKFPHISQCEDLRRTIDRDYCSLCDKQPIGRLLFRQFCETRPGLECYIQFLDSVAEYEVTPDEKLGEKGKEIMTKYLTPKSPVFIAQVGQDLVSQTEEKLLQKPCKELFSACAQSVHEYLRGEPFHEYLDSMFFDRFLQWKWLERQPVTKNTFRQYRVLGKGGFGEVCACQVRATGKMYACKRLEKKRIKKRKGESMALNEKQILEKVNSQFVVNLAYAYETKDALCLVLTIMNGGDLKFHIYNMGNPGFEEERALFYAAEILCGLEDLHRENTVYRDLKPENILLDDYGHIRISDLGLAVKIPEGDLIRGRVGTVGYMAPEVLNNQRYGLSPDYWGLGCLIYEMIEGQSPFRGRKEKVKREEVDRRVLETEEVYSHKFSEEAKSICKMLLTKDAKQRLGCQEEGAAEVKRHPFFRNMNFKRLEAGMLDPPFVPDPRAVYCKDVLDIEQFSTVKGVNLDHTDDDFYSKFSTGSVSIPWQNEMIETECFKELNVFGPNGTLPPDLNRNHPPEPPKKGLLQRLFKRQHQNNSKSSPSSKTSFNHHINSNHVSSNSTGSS

For `COc1ccc(CNC(=O)/C(C#N)=C/c2c[nH]c3ncccc23)cc1S(N)(=O)=O` [Example 36, (E)-2-cyano-N-(4-methoxy-3-sulfamoylbenzyl)-3-(1H-pyrrolo[2,3-b]pyridin-3-yl)acrylamide], the IC50 on GRK2 is 1 to 10 µM; on GRK5 it was 0.1 to 0.5 µM.

For `COc1ccc([C@@H](C)NC(=O)/C(C#N)=C/c2c[nH]c3ncc(-c4cccc(CN(C)C)c4)cc23)cc1OC` [Example 148], the IC50 at GRK2 was 1 to 10 µM; at GRK5 it was at most 0.05 µM.

With `COc1ccc([C@@H](C)NC(=O)/C(C#N)=C/c2c[nH]c3ncc(-c4ccc(C5CCN(C)CC5)cc4)cc23)cc1OC` [Example 132, (R,E)-2-cyano-N-(1-(3,4-dimethoxyphenyl)ethyl)-3-(5-(4-(1-methylpiperidin-4-yl)phenyl)-1H-pyrrolo[2,3-b]pyridin-3-yl)acrylamide], the IC50 on GRK2 is 0.5 to 1 µM; on GRK5, at most 0.05 µM.

For `COc1ccc([C@@H](C)NC(=O)/C(C#N)=C/c2c[nH]c3ncc(-c4cccc(OCCCN(C)C)c4)cc23)cc1OC` [Example 133], the IC50 at GRK2 and on GRK5 was 1 to 10 µM each time.

On to `COc1ccc([C@@H](C)NC(=O)/C(C#N)=C/c2c[nH]c3nccc(-c4ccc(C5CCN(C)CC5)cc4)c23)cc1OC` [Example 170], for which the IC50 is 1 to 10 µM at GRK2 and at most 0.05 µM at GRK5.

Consider `Cc1nn(C)c2cc([C@@H](C)NC(=O)/C(C#N)=C/c3c[nH]c4ncc(-c5cnn(C)c5)cc34)ccc12` [Example 261, (R,E)-2-cyano-N-(1-(1,3-dimethyl-1H-indazol-6-yl)ethyl)-3-(5-(1-methyl-1H-pyrazol-4-yl)-1H-pyrrolo[2,3-b]pyridin-3-yl)acrylamide], for which the IC50 was over 10 µM at GRK2 and at most 0.05 µM on GRK5.

Consider `CC(NC(=O)/C(C#N)=C/c1c[nH]c2ncccc12)c1ccc(F)cc1` (stereo not drawn) [Example 63, (E)-2-cyano-N-(1-(4-fluorophenyl)ethyl)-3-(1H-pyrrolo[2,3-b]pyridin-3-yl)acrylamide], for which the IC50 on GRK2 and at GRK5 was 0.1 to 0.5 µM throughout.

`COc1ccc([C@@H](C)NC(=O)/C=C/c2c[nH]c3ncc(-c4cnn(CC(C)O)c4)cc23)cc1OC` (stereo partly drawn) [Example 214, (E)-N-((R)-1-(3,4-dimethoxyphenyl)ethyl)-3-(5-(1-(2-hydroxypropyl)-1H-pyrazol-4-yl)-1H-pyrrolo[2,3-b]pyridin-3-yl)acrylamide]: the IC50 was 1 to 10 µM at GRK2 and at most 0.05 µM at GRK5.

Turning to `COc1cc(C(C)NC(=O)/C=C/c2c[nH]c3ncc(-c4cnn(C)c4)cc23)cnc1OC` (stereo not drawn) [Example 265, (E)-N-(1-(5,6-dimethoxypyridin-3-yl)ethyl)-3-(5-(1-methyl-1H-pyrazol-4-yl)-1H-pyrrolo[2,3-b]pyridin-3-yl)acrylamide], the IC50 on GRK2 was over 10 µM; at GRK5, 0.05 to 0.1 µM.

In the case of `C[C@@H](NC(=O)/C=C/c1c[nH]c2ncc(-c3cnn(C)c3)cc12)c1ccc(F)c(F)c1` [Example 257, (R,E)-N-(1-(3,4-difluorophenyl)ethyl)-3-(5-(1-methyl-1H-pyrazol-4-yl)-1H-pyrrolo[2,3-b]pyridin-3-yl)acrylamide], the IC50 on GRK2 is 0.1 to 0.5 µM; on GRK5, at most 0.05 µM.

As to `N#C/C(=C\c1c[nH]c2ncccc12)C(=O)NC(c1cccc(Br)c1)C(F)(F)F` (stereo not drawn) [Example 47, (E)-N-(1-(3-bromophenyl)-2,2,2-trifluoroethyl)-2-cyano-3-(1H-pyrrolo[2,3-b]pyridin-3-yl)acrylamide], the IC50 on GRK2 was over 10 µM; at GRK5 it was 1 to 10 µM.

Regarding `COc1ccc([C@@H](C)NC(=O)/C(C#N)=C/c2c[nH]c3ncc(-c4cccc(C(=O)N5CCOCC5)c4)cc23)cc1OC` [Example 127, (R,E)-2-cyano-N-(1-(3,4-dimethoxyphenyl)ethyl)-3-(5-(3-(morpholine-4-carbonyl)phenyl)-1H-pyrrolo[2,3-b]pyridin-3-yl)acrylamide], the figures for the IC50 on GRK2 and at GRK5 were over 10 µM and at most 0.05 µM, respectively.
